BindingDB's records for doi:10.1021/jm00062a011 (Smithkline Beecham Pharmaceuticals, 1993)
Counter-ions that a name gives are not always drawn.

What follows are compounds tested against cGMP-specific 3',5'-cyclic phosphodiesterase PDE5 (Sus scrofa) (assay: In vitro inhibition of PDE-V isolated from porcine pulmonary artery.).

Row | IC50 [µM] | Structure (SMILES)
1 | 4 | c1ccc(COc2ccccc2-c2nc3ncccc3[nH]2)cc1 [2-(2-Benzyloxy-phenyl)-3H-imidazo[4,5-b]pyridine]
2 | 15 | c1ccc(-c2nc3ncccc3[nH]2)c(OC2CCCC2)c1 [2-(2-Cyclopentyloxy-phenyl)-3H-imidazo[4,5-b]pyridine]
3 | 6 | c1ccc(-c2nc3ncccc3[nH]2)c(OCC2CC2)c1 [2-(2-Cyclopropylmethoxy-phenyl)-3H-imidazo[4,5-b]pyridine]
4 | 18 | CCOc1ccccc1-c1nc2ncccc2[nH]1 [2-(2-Ethoxy-phenyl)-3H-imidazo[4,5-b]pyridine]
5 | 4 | CCCCCCOc1ccccc1-c1nc2ncccc2[nH]1 [2-(2-Hexyloxy-phenyl)-3H-imidazo[4,5-b]pyridine]
6 | 42 | COc1ccccc1-c1nc2ccncc2[nH]1 [2-(2-Methoxy-phenyl)-3H-imidazo[4,5-c]pyridine; hydrochloride]
7 | 1 | CCCCCOc1ccccc1-c1nc2ncccc2[nH]1 [2-(2-Pentyloxy-phenyl)-3H-imidazo[4,5-b]pyridine]
8 | 1 | CCCCCOc1ccccc1-c1nc2ccncc2[nH]1 [2-(2-Pentyloxy-phenyl)-3H-imidazo[4,5-c]pyridine; hydrochloride]
9 | 33 | CCCOc1ccccc1-c1cn2cccnc2n1 [2-(2-Propoxy-phenyl)-imidazo[1,2-a]pyrimidine]
10 | 24 | CCCSc1ccccc1-c1nc2ncccc2[nH]1 [2-(2-Propylsulfanyl-phenyl)-3H-imidazo[4,5-b]pyridine]
11 | 37 | Oc1ccccc1-c1nc2ncccc2[nH]1 [2-(3H-Imidazo[4,5-b]pyridin-2-yl)-phenol]
12 | 58 | COc1cc([S+](C)[O-])ccc1-c1nc2cnccc2[nH]1 (stereo unspecified) [2-(4-Methanesulfinyl-2-methoxy-phenyl)-1H-imidazo[4,5-c]pyridine(isomazole)]
13 | 2 | ClCCCOc1ccccc1-c1nc2ncccc2[nH]1 [2-[2-(3-Chloro-propoxy)-phenyl]-3H-imidazo[4,5-b]pyridine]
14 | 24 | OCCCOc1ccccc1-c1nc2ncccc2[nH]1 [3-[2-(3H-Imidazo[4,5-b]pyridin-2-yl)-phenoxy]-propan-1-ol]
15 | 26 | CCCNc1ccccc1-c1nc2ncccc2[nH]1 [[2-(3H-Imidazo[4,5-b]pyridin-2-yl)-phenyl]-propyl-amine]

Row | Structure (SMILES) | IC50 [µM]
16 | CCCCOc1ccccc1-c1nc2ncccc2[nH]1 [2-(2-Butoxy-phenyl)-3H-imidazo[4,5-b]pyridine] | 1
